Test results as given in publication PMC10123561 (Signal Transduction and Targeted Therapy, 2023).
Values joined by “and” are separate entries in the source; they are usually repeats but may differ in a detail not shown here. Equal values may be shown once. “Also recorded” adds a separate entry of the source. Where a name gives a salt, the structure may show the parent alone. Read-outs that look alike come from different tables or passages of the source.

Tests used:
[1] = tested on: SARS-CoV-2; conditions: cited from earlier work
[2] = tested on: M^pro; conditions: read-out: Activity: IC50; cited from earlier work
[3] = target: SARS-CoV-2 RdRp complex (Severe acute respiratory syndrome coronavirus 2, UniProt P0DTD1); test: biochemical
[4] = tested on: SARS-CoV-2; test: Randomized open-label clinical trial in mild/moderate COVID-19 patients, efficacy; type: in vivo
[5] = human, in vivo
[6] = HIV-infected patients; cited from earlier work
[7] = in vitro; conditions: African green monkey
[8] = tested on: cathepsin L; conditions: read-out: IC50 against cathepsin L; cited from earlier work
[9] = target: SARS-CoV-2 M^pro (Severe acute respiratory syndrome coronavirus 2, UniProt P0DTD1); test: biochemical
[10] = tested on: SARS-CoV-2 strain 20SF107; type: in vivo, rhesus macaques
[11] = rats, 4 h after oral administration; cited from earlier work
[12] = target: cyclophilin A; design: method as in PMID 34677780; conditions: cited from earlier work
[13] = Pharmacokinetics in healthy rhesus macaques after nasogastric administration; conditions: 200 mg/kg nasogastric; for Cmax / AUC / MRT / half-life: rhesus monkey, plasma, 200 mg/kg
[14] = Lung distribution study in mouse; conditions: male, ICR, po
[15] = cited from earlier work; for AUC0-∞: healthy human volunteers
[16] = target: SARS-CoV-2 PL^pro (Severe acute respiratory syndrome coronavirus 2, UniProt P0DTD1); test: SARS-CoV-2 PL^pro inhibition assay; type: biochemical; conditions: read-out: inhibition rate against papain-like protease (PL^pro)
[17] = twice daily, cited from earlier work
[18] = cited from earlier work
[19] = tested on: wild type SARS-CoV-2; test: microbe, parasite or virus in culture; type: cell-based; conditions: mean ± sd
[20] = tested on: inflammatory cytokines; conditions: at 2.5 μM; cited from earlier work
[21] = tested on: Vero E6 cells
[22] = male, rhesus monkey, in vivo
[23] = tested on: SARS-CoV-2 spike mediated cell fusion; conditions: at 10 μM; cited from earlier work
[24] = log-rank analysis, N = 5, NE = Not Evaluable

CC(C)C(=O)OC[C@H]1O[C@@H](n2ccc(NO)nc2=O)[C@H](O)[C@@H]1O [molnupiravir]
decrease of the risk of hospitalization or death ([1]; MOVe-OUT, non-hospitalized patients): 48%

O=C(Sc1n[nH]c(C(F)(F)F)n1)c1ccc(C#Cc2ccccc2)o1 [F3F]
IC50 [2]: 3 µM

CC(C)(C)[C@H](NC(=O)C(F)(F)F)C(=O)N1C[C@H]2[C@@H]([C@H]1C(=O)N[C@H](C#N)C[C@@H]1CCNC1=O)C2(C)C [nirmatrelvir]
decrease of the probability of hospitalization or mortality ([1]; EPIC-HR, non-hospitalized adults at high risk): 89%
rate of hospitalization owing to COVID-19 among treated patients ([1]; patients aged 40 to 64 years, Israel, omicron, untreated 15.8): 15.2 instances per 100,000 person-days

Cc1c(O)cccc1C(=O)N[C@@H](CSc1ccccc1)[C@H](O)CN1C[C@H]2CCCC[C@H]2C[C@H]1C(=O)NC(C)(C)C [nelfinavir, Nelfinavir Mesylate]
IC50 [3]: 112 ± 8.2 µM
proportion of subjects whose respiratory specimens were negative for SARS-CoV-2 RNA ([4]; 7th day of treatment, N = 19): 31.6%
proportion of cases with fever ([4]; 9/19): 47.4%
chest CT results of moderate COVID-19 ([4]; 14th day of treatment): one patient was abnormal and had no clinical significance
proportion of subjects whose respiratory specimens were negative for SARS-CoV-2 RNA ([4]; 14th day of treatment, N = 19): 68.4%
progression to severe or critical pneumonia ([4]; 14th day of treatment, patients with mild COVID-19 (N = 5)): no subjects
TTCR time (time to clinical recovery) ([4]; N = 5, control 11.0 days): 7.0 days
shortening of duration of fever time versus control group ([4]; P = 0.014): 3.8 days
shortening of median time for TTCR ([4]; P = 0.899): 4.0 days
average fever days (duration of fever time) in patients with fever ([4]; control 6.6 ± 4.1 days, P = 0.014): 2.8 days and 2.8 ± 1.6 days
progression of subjects with mild disease to pneumonia ([4]; day 7 of treatment): did not progress to pneumonia
time of TTCR, 25%(95%CI) [4, 24]: 4.0(1.0~ NE) d
time of TTCR, 50%(95%CI) [4, 24]: 7.0(1.0~ NE) d
time to convert to negative throat swab, 25%(95%CI) ([4]; log-rank analysis, N = 19): 5.0(1.0~9.0) d
time to convert to negative throat swab, 50%(95%CI) ([4]; log-rank analysis, N = 19): 9.0(5.0~11.0) d
time to convert to negative throat swab, 75%(95%CI) ([4]; log-rank analysis, N = 19): 12.0(9.0~22.0) d
shortening of duration of viral shedding versus control group ([4]; median, P = 0.055): 5.5 days
median time to convert to negative throat swab of SARS-CoV-2 (duration of viral shedding) ([4]; nelfinavir 1250 mg every 12 h, N = 19, control 14.5 days, P = 0.055): 9.0 days
cases of grade 1 adverse events [5]: 15 cases
death of illness [5]: No patients died
grade of adverse events during the trial [5]: all grade 1
number of patients with grade 1 adverse events [5]: 10 patients
patients with abnormal sitting blood pressure, respiratory rate and pulse [5]: no clinically significant patients
proportion of patients with grade 1 adverse events [5]: 52.6%
Cmax in PBMCs relative to plasma [6]: ~ 15 fold
cellular accumulation in PBMCs relative to plasma [6]: 5.30 fold
CC50 [7]: 51.6 µM
IC50 [8]: 18 µM
IC50 ([9]; IC50 against SARS-CoV-2 M^pro): 23 µM and > 20 µM
IC50 ([9]; IC50 against SARS-CoV-2 main protease (M^pro)): 8.26 µM
body weight change compared with control monkeys ([10]; 200 mg/kg prophylactic, twice daily): not significant
body temperature compared with vehicle control monkeys ([10]; 200 mg/kg prophylactic, twice daily, […]): significantly lower
viral loads in extrapulmonary tissues, e.g. colon and heart, compared with control group ([10]; […], no statistical difference): increasing trends
reduction of viral replication in the lungs ([10]; at necropsy, prophylactic treatment): nearly three orders of magnitude; also recorded: approximately three orders of magnitude
reduction of virus RNA in lung (left lower lobe) compared to vehicle-treated monkeys ([10]; rhesus monkey, in vivo): 2.88 log
viral load in nasal swabs compared with control group ([10]; rhesus monkey, in vivo): Significant reductions; also recorded: significantly reduced; also recorded: significantly lower
viral load in rectal (anal) swabs compared with control group ([10]; rhesus monkey, in vivo): Significant reductions; also recorded: significantly reduced; also recorded: significantly lower
viral load in throat swabs compared with control group ([10]; rhesus monkey, in vivo): without significance
virus RNA in kidney samples ([10]; rhesus monkey, in vivo): could not be detected
lung-to-plasma ratio [11]: 3.24
Kd [12]: 0.94 µM
Tpeak ([13]; Monkey 1, healthy): 6.00 h
Tpeak ([13]; Monkey 2, healthy): 4.00 h
Cmax ([13]; oral, average maximum plasma concentration (Cmax), two healthy rhesus macaques): 3.2 µM
AUC ([13]; po, AUCon, Monkey 1, healthy): 28.4 µM·h
AUC ([13]; po, AUCon, Monkey 2, healthy): 10.6 µM·h
AUC ([13]; po, AUCtot, Monkey 1, healthy): 28.4 µM·h
AUC ([13]; po, AUCtot, Monkey 2, healthy): 10.7 µM·h
Cmax ([13]; po, Cmax, Monkey 1, healthy): 5.33 µM
Cmax ([13]; po, Cmax, Monkey 2, healthy): 1.07 µM
MRT ([13]; po, Monkey 1, healthy): 7.25 h
MRT ([13]; po, Monkey 2, healthy): 12 h
half-life ([13]; po, t1/2, Monkey 1, healthy): 4.46 h
half-life ([13]; po, t1/2, Monkey 2, healthy): 6.92 h
time at which Cmax was achieved after dosing ([13]; two healthy rhesus macaques): 5 h
Kp [14]: 2 to 3
Kp at 0.5 h ([14]; 250 mg/kg): 2.08 ± 0.5
Kp at 1 h ([14]; 250 mg/kg): 2.35 ± 0.34
Kp at 3 h ([14]; 250 mg/kg): 2.24 ± 0.59
Kp at 6 h ([14]; 250 mg/kg): 1.81 ± 0.19
Kp at 9 h ([14]; 250 mg/kg): 2.33 ± 0.28
Kp at 0.5 h ([14]; 750 mg/kg): 2.07 ± 0.42
Kp at 1 h ([14]; 750 mg/kg): 3.11 ± 0.82
Kp at 3 h ([14]; 750 mg/kg): 2.83 ± 0.33
Kp at 6 h ([14]; 750 mg/kg): 3.22 ± 0.63
Kp at 9 h ([14]; 750 mg/kg): 2.61 ± 0.08
AUC0-∞ ([15]; dosage of 100 mg): 1250 ± 230 ng·h/mL
AUC0-∞ ([15]; dosage of 800 mg): 22208 ± 6306 ng·h/mL
plasma Ctrough,Morning ([15]; human, 1250 mg BID, ref VIRACEPT FDA Package Insert Reference ID: 3986049): 3.87 µM
Cmax ([15]; human, 1250 mg BID, ref VIRACEPT FDA Package Insert Reference ID: 3986049, read-out: plasma Cmax): 7.04 µM
inhibition at 100 µM [16]: 33.3 ± 2.47%
maximum tolerated dosage (MTD) ([17]; adults with solid tumors): 3125 mg
maximum tolerated dosage (MTD) ([17]; liposarcoma, MTD not reached): > 4250 mg
concentration in the lung epithelial lining fluid versus plasma [18]: comparable to that in plasma
proportion of patients with detectable drug in bronchoalveolar lavage (BAL) fluid [18]: 100%
lung distribution in patients relative to plasma ([18]; human, in vivo): approximately three times as high as that of plasma
EC50 ([19]; Severe acute respiratory syndrome coronavirus 2, Vero C1008, Vero E6 cells): 2.93 ± 0.32 µM
EC50 ([19]; Severe acute respiratory syndrome coronavirus 2, Calu-3 cells): 1.86 ± 0.26 µM
inhibition of inflammatory cytokines in vitro [20]: successfully inhibit
selectivity index (SI) [21]: 17.59
plasma concentration in infected relative to healthy rhesus macaques [22]: around 1/6
trough plasma concentration (Ctrough) [22]: 0.26 µM
plasma concentration at 5 h after dosing (C5h), average ([22]; 200 mg/kg): 0.55 µM
inhibition of SARS-CoV-2 spike mediated cell fusion [23]: completely inhibit
